The record followed here is patent publication US10288604B2, “Method for imaging cell using fluorescence-labeled sugar derivative having coumarin derivative bound thereto, and imaging agent” (HIROSAKI UNIVERSITY, priority 2012, dated 2019).

The assay concerns mouse insulinoma cells (MIN6). The assay can be described thus: Uptake into MIN6 cells and influence of glucose transport inhibitors (fluorescent microplate reader). It counts as cell-based. As to the method:
Cryopreserved MIN6 cells (cells donated from Professor Miyazaki Junichi of Osaka University and cultured 5 to 8 passages) were subjected to culture according to an ordinary method, and cultures at 7 to 9 passages were used in experiments.
NaCl 129.0 mM, KCl 4.75 mM, KH2 PO4 1.19 mM, MgSO4.7H2O 1.19 mM, CaCl2.2H2O 1.0 mM, NaHCO3 5.02 mM, D-Glucose 5.6 mM, HEPES 10 mM (pH was adjusted to 7.35 with 1M NaOH). For inhibiting entrance and elimination of a fluorescently labeled glucose via gap junction/hemichannel, 0.1 mM Carbenoxolone (SIGMA #C4790) was added. This KRB solution was used as a solution for preparing a 2-PBLG solution.
2-PBDG and 2-PBLG were charged into wells at the third column and the fifth column, respectively, using a 8-channel pipette. Before administration, the autofluorescence of each well was measured beforehand by a fluorescent micro plate reader (Flex Station, manufactured by Molecular Device). The measurement conditions include Bottom Read, Ex 401 nm, Em 453 nm, Cut off 420 nm, Averaging 3, and high sensitivity of Photomultiplier. In the measurement method, Well Scan Mode was used. In Well Scan Mode, the inside of one well was divided into 9 regions of interest (diameter: 1.5 mm) and measurement was performed each independently.
Next, in wells (3C, 3E, 3G) for measuring the effect of a glucose transport inhibitor phloretin, phloretin (final 150 μM) was administered beforehand from 5 minutes prior to administration of 2-PBDG, while KRB was added to other wells (3B, 3D, 3F). Similar operation was also conducted on the fifth column where 2-PBLG was to be administered. 2-PBDG and 2-PBLG were administrated at 37° C. for 10 minutes.
After completion of administration, a diluting operation of the fluorescence solution in the well using 300 μL of a KRB solution was repeated set times each for 30 seconds. The repetition time was determined so that the fluorescence intensity detected by wells of A-th row and H-th row set as a control group was equivalent to the fluorescence intensity of a blank well containing no cell, and complete washout was confirmed in every experiment. In the case of 2-PBDG and 2-PBLG, this washout process needed 8 minutes, thus, measurement of fluorescence after administration was carried out 9 minutes after.
According to this method, even if cells having undergone a loss of the plasma membrane contacted 2-PBDG and 2-PBLG and once took up these compounds into themselves, it is judged that contribution of the increase in the fluorescence intensity to the whole observation area was ignorable level since these compounds had already been washed out of the cells when performing the measurement. This was supported by a pharmacological inhibition experiment separately in which the increase in the fluorescence intensity almost completely disappeared in the presence of an inhibitor. The above-described method was conducted in the same manner also when other inhibitor, for example, cytochalasin B (10 μM) was added.
The change of fluorescence intensity by administration of a D-glucose derivative (2-PBDG), an L-glucose derivative (2-PBLG) and PB—NH2 prepared by amidating Pacific Blue (PB) chromophore group to MIN6 cells on day of 10 of culture and the effect by a glucose transport inhibitor were confirmed in the same manner as in Example 4. PB—NH2 has the following structure (Ex max. 402 nm, Em max. 451 nm).
An experiment was conducted in the same manner as in Example 4.
The experiment was carried out 3 times independently, and the same results were obtained in all cases. In the experiment of administration of 2-PBDM, excitation occurred at a maximum excitation light wavelength of 404 nm and fluorescence was acquired at a maximum emission wavelength of 453 nm.

For `O=C(NC1C(O)OC(CO)[C@H](O)C1O)c1cc2cc(F)c(O)c(F)c2oc1=O` (stereo partly drawn) [2-PBLG, 2-Deoxy-2-((6,8-difluoro-7-hydroxycoumarin-3-yl)carboxamido)-L-glucose], where the note is “100 μM derivative, 150 μM phloretin, MIN6 day 10, increase without phloretin as reference”, the “decreased value of fluorescence intensity owing to phloretin (average)” value was 20.0%. In addition, for the setting “100 μM derivative, phloretin 150 μM, MIN6 day 10”, the “effect of phloretin on increase in fluorescence intensity (in words)” value is recorded as “inhibited the increase in the fluorescence intensity by 2-PBLG slightly”. Moreover, the “difference between fluorescence intensity of 2-PBDG and of 2-PBLG” value (100 μM each, absence of phloretin, 2-PBDG = 100%) is recorded as “no significant difference”. Also, for the setting “100 μM, MIN6 on day 10 of culture, Ex 401 nm, Em 453 nm”, the “fluorescence intensity after administration as compared with that before administration” value is “increases significantly”.
